Literature values, collected in patent US20100055036A1, “PET VISUALIZATION OF AMYLOID-ASSOCIATED NEUROINFLAMMATION IN THE BRAIN” (National Institute of Radiolotgical Sciences, priority 2007, published 2010).

System: amyloid plaque lesions in mouse brain
Details: mice developing abundant plaque lesions vs WT

## [11CH3]Nc1ccc(-c2nc3ccc(O)cc3s2)cc1 [[^11C]6-OH-BTA-1, N-[^11C]methyl-2-(4′-methylaminophenyl)-6-hydroxybenzothiazole]
  PET data in brains of plaque-bearing mice compared with wild-type mouse brains: virtually indistinguishable
